Experimental data published in US7241913B2, “Ruthenium compounds” (The University Court of the University of Edinburgh, priority 2003, dated 2007).

Assays:
[1] = tested on: A2780 ovarian cancer cell line resistant to adriamycin (A2780^AD); experiment: Growth inhibition, adriamycin resistant ovarian line; assay type: cell-based, human; settings: adriamycin resistant A2780 relative to A2780
Method: (§1) The human ovarian cells were added at a density of 1×10^4 cells per well to 24-well tissue culture trays (Falcon Plastic, Becton Dickenson, Lincon Park, N.J., USA) and allowed to grow for 72 h before addition of the Ru(II) arene complexes. Stock solutions of the ruthenium compounds were made up fresh in deionised water and sonicated to ensure complete dissolution. These stock solutions were diluted with media to give final concentrations ranging between 0.1 and 100 μM. All compounds were evaluated at each concentration in duplicate wells, and complete assays were repeated a minimum of three times. Cisplatin or carboplatin was employed as a positive and comparative control in each experiment. After 24-hours exposure the drug-containing medium was removed, the cells washed with phosphate buffered saline (PBS) and fresh medium was added. Cell number was assessed after a further 72 h growth using a Coulter counter (Coulter Electronics Ltd, Luton, UK) and the IC50 values (concentration of drug causing 50% growth inhibition) calculated by linear regression analysis comparing the inhibitory effects of the drugs against the growth of untreated cells.
(§2) The cell lines and methods used are also described in Aird et al, Br. J. Cancer, (2002), 86, 1652–1657.
(§3) Using the above protocol, a number of compounds of the invention were tested on A2780 ovarian cancer cell line, on an A2780 ovarian cancer cell line resistant to cis-platin (A2780^CIS), and on an A2780 ovarian cancer cell line resistant to adriamycin (A2780^AD). Some of the compounds were tested on an A549 cell line.

[2] = tested on: A2780 ovarian cancer cell line; experiment: Growth inhibition of human ovarian cancer cells, 24 h exposure, Coulter cell count; assay type: cell-based
Method: as §1, §2, §3

[3] = tested on: A2780 ovarian cancer cell line resistant to cis-platin (A2780^CIS); experiment: Growth inhibition, cis-platin resistant ovarian line; assay type: cell-based, human; settings: cis-platin resistant A2780 relative to A2780
Method: as §1, §2, §3

A549 cell line = experiment: Growth inhibition, A549 cell line; assay type: cell-based; settings: A549 cells; Table 1
Method: as §1, §3

[4] = comparison with 1,2-diaminoethane analogues
[5] = 24 h exposure, cell number after further 72 h growth, Table 1

SMILES | A2780^AD fold resistance ([1]; Table 1) [fold] | A2780^AD fold resistance [1, 4] [fold] | IC50 [2, 5] [µM] | IC50 [2, 4] [µM] | A2780^CIS Fold resistance ([3]; Table 1) [fold] | A2780^CIS Fold resistance [3, 4] [fold] | IC50 (A549 cell line) [µM]
F[P-](F)(F)(F)(F)F.[Cl][Ru-]1[NH2+]c2ccccc2[NH2+]1.c1ccc(-c2ccccc2)cc1 [EX 1, [(η^6-Biphenyl)Ru(o-phenylenediamine)Cl]PF6] | 0.8 | 0.8 | 5 | 5 | 1 | 1 | 
F[P-](F)(F)(F)(F)F.F[P-](F)(F)(F)(F)F.Nc1ccc(-c2ccc(N)c(N)c2)cc1N.[Cl][Ru+].[Cl][Ru+].c1ccc(-c2ccccc2)cc1.c1ccc(-c2ccccc2)cc1 [EX 2, {[(η^6-Biphenyl)Ru(diaminobenzidine)Cl]PF6}2] |  |  | 52 |  |  |  | 
F[P-](F)(F)(F)(F)F.Nc1ccccc1N.[Cl][Ru+].c1ccc2c(c1)Cc1ccccc1C2 [EX 3, [(η^6-dihydroanthracene)Ru(o-phenylenediamine)Cl]PF6] | 2 | 2 | 7 | 7 | 5 | 5 | 
F[P-](F)(F)(F)(F)F.Nc1cccc(O)c1N.[Cl][Ru+].c1ccc(-c2ccccc2)cc1 [EX 4, [(η^6-Biphenyl)Ru(2,3-diaminophenol)Cl]PF6] |  |  | 32 |  |  |  | 
Cc1ccc(N)c(N)c1.F[P-](F)(F)(F)(F)F.[Cl][Ru+].c1ccc2c(c1)CCC2 [EX 5, [(η^6-indan)Ru(3,4-diaminotoluene)Cl]PF6] |  |  | 4 |  |  |  | 
Cc1ccc(C(C)C)cc1.F[P-](F)(F)(F)(F)F.Nc1ccccc1N.[Cl][Ru+] [EX 6, [(η^6-p-cymene)Ru(o-phenylenediamine)Cl]PF6] | 0.6 | 0.6 | 11 | 11 | 1 | 1 | 
F[P-](F)(F)(F)(F)F.Nc1ccc([N+](=O)[O-])cc1N.[Cl][Ru+].c1ccc2c(c1)CCCC2 [Example 7, [(η^6-1,2,3,4-tetrahydronaphthalene)Ru(1,2-diamino-4-nitrobenzene)Cl]PF6] |  |  | 59 |  |  |  | 148
Nc1ccc2c(c1N)C(=O)c1ccccc1C2=O.[Cl-].[Cl][Ru+].c1ccc2c(c1)CCC2 [Example 8, [(η^6-indan)Ru(1,2-diaminoanthraquinone)Cl]Cl] |  |  | 15 |  |  |  | 48
Nc1ccc2c(c1N)C(=O)c1ccccc1C2=O.[Cl-].[Cl][Ru+].c1ccc2c(c1)CCCC2 [Example 9, [(η^6-1,2,3,4-tetrahydronaphthalene)Ru(1,2-diaminoanthraquinone)Cl]Cl] |  |  | 37 |  |  |  | 61
